# Test results taken from patent US10118902B2 (Sanford Burnham Prebys Medical Discovery Institute, priority 2014, dated 2018).
# Molecular target: neurotensin receptor 1 (NTR1) (Homo sapiens (Human), UniProt P30989)
# Experiment: NTR1 dose response, high-content imaging beta-arrestin-GFP assay in NTR1-U2OS cells
# Assay type: cell-based
# Conditions: read-out: EC50
# Chain of neurotensin receptor 1 (NTR1) (P30989 whole entry, species assumed): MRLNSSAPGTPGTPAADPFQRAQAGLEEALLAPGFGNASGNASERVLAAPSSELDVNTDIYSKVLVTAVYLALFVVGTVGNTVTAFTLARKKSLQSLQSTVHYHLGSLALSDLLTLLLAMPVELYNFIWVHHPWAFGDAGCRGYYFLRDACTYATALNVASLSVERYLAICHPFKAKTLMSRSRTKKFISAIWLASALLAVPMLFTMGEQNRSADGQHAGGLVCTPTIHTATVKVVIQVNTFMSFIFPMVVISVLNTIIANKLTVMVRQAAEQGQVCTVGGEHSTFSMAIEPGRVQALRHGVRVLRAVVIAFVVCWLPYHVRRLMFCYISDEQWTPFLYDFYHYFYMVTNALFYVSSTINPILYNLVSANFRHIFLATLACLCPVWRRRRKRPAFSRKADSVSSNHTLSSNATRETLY
row,EC50,SMILES
1,2000 to 10000 nM,"COc1ccccc1C1CCN(c2nc(C3CC3)nc3cc(N(C)CCO)ccc23)CC1 [Example 169, 2-({2-Cyclopropyl-4-[4-(2-methoxy-phenyl)-piperidin-1-yl]-quinazolin-7-yl}-methyl-amino)-ethanol]"
2,500 to 2000 nM,"COc1ncccc1C1CCN(c2nc(C3(F)CC3)nc3ccc(N(C)CCO)cc23)CC1 [Example 207, 2-{[2-(1-Fluoro-cyclopropyl)-4-(2-methoxy-3′,4′,5′,6′-tetrahydro-2′H-[3,4′]bipyridinyl-1′-yl)-quinazolin-6-yl]-methyl-amino}-ethanol]"
3,2000 to 10000 nM,"COc1ccccc1C1CCN(c2nc(C3CC3)nc3ccc(N4CCC(O)CC4)cc23)CC1 [Example 76, 1-{2-cyclopropyl-4-[4-(2-methoxy-phenyl)-piperidin-1-yl]-quinazolin-6-yl}-piperidin-4-ol]"
4,2000 to 10000 nM,"COc1ccccc1C1CCN(c2nc(C#CC3CC3)nc3ccc(N(C)CCO)cc23)CC1 [Example 136, 2-((2-(cyclopropylethynyl)-4-(4-(2-methoxyphenyl)piperidin-1-yl)quinazolin-6-yl)(methyl)amino)ethanol]"
5,> 10000 nM,"COC(=O)Cc1c(C)nc(C2CC2)nc1N1CCC(c2ccccc2OC)CC1 [Example 156, Methyl 2-(2-cyclopropyl-4-(4-(2-methoxyphenyl)piperidin-1-yl)-6-methylpyrimidin-5-yl)acetate]"
6,500 to 2000 nM,"COc1ccccc1C1CCN(c2nc(C3(F)CC3)nc3cnc(N4CC[C@H](O)C4)cc23)CC1 [Example 196, 1-{2-(1-Fluoro-cyclopropyl)-4-[4-(2-methoxy-phenyl)-piperidin-1-yl]-pyrido[3,4-d]pyrimidin-6-yl}-pyrrolidin-3-ol]"
7,2000 to 10000 nM,"CN(C)CCN(C)c1ccc2nc(C3CC3)nc(N3CCC(c4ccccc4N(C)C)CC3)c2c1 [Example 14, N-{2-cyclopropyl-4-[4-(2-dimethylamino-phenyl)-piperidin-1-yl]-quinazolin-6-yl}-N,N′,N′-trimethyl-ethane-1,2-diamine]"
8,> 10000 nM,"COc1cccc2c1CN(c1nc(C3CC3)nc3ccc(N(C)CCO)cc13)C2 [Example 149, 2-{[2-cyclopropyl-4-(4-methoxy-1,3-dihydro-isoindol-2-yl)-quinazolin-6-yl]-methyl-amino}-ethanol]"
9,500 to 2000 nM,"COc1ccccc1C1CCN(c2nc(C3CC3)nc3ccc(N4CC[C@H](O)C4)cc23)CC1 [Example 173, (S)-1-(2-cyclopropyl-4-(4-(2-methoxyphenyl)piperidin-1-yl)quinazolin-6-yl)pyrrolidin-3-ol]"
10,> 10000 nM,CCCN(C)c1ccc2nc(C3CCCC3)nc(N3CCC(c4ccccc4OC)CC3)c2c1 [Example 40]
11,> 10000 nM,"CCCN(CCC)c1ccc2nc(N(C)C)nc(N3CCC(c4ccccc4OC)CC3)c2c1 [Example 96, 4-(4-(2-methoxyphenyl)piperidin-1-yl)-N2,N2-dimethyl-N6,N6-dipropylquinazoline-2,6-diamine]"
12,> 10000 nM,"CN(C)CCN(C)c1ccc2nc(C3(C)CC3)nc(N3CCC(c4ccccc4N(C)C)CC3)c2c1 [Example 28, N-[4-[4-(2-dimethylamino-phenyl)-piperidin-1-yl]-2-(1-methyl-cyclopropyl)-quinazolin-6-yl]-N,N′,N′-trimethyl-ethane-1,2-diamine]"
13,500 to 2000 nM,"COc1ccccc1C1CCN(c2nc(C3(C)CCC3)nc3ccc(N(C)CCN4CCOCC4)cc23)CC1 [Example 69, [4-[4-(2-methoxy-phenyl)-piperidin-1-yl]-2-(1-methyl-cyclobutyl)-quinazolin-6-yl]-methyl-(2-morpholin-4-yl-ethyl)-amine]"
14,> 10000 nM,"COc1ccccc1N1CCC(Nc2nc(C3CC3)nc3ccc(N(C)CCO)cc23)C1 (stereo not shown) [Example 154, 2-((2-cyclopropyl-4-((1-(2-methoxyphenyl)pyrrolidin-3-yl)amino)quinazolin-6-yl)(methyl)amino)ethanol]"
15,2000 to 10000 nM,"CN(CCO)c1ccc2nc(C3(C)CC3)nc(N3CCC(c4ccccc4N4CCC4)CC3)c2c1 [Example 30, 2-{[4-[4-(2-azetidin-1-yl-phenyl)-piperidin-1-yl]-2-(1-methyl-cyclopropyl)-quinazolin-6-yl]-methyl-amino}-ethanol]"
16,2000 to 10000 nM,"CN(C)c1ccccc1C1CCN(c2nc(C3(C)CCCC3)nc3ccc(N(C)CCO)cc23)CC1 [Example 53, {[4-[4-(2-Dimethylamino-phenyl)-piperidin-1-yl]-2-(1-methyl-cyclopentyl)-quinazolin-6-yl]-methyl-amino}-ethanol]"
17,2000 to 10000 nM,"CCCN(C)c1cccc2nc(C3CC3)nc(N3CCC(c4ccccc4OC)CC3)c12 [Example 131, {2-cyclopropyl-4-[4-(2-methoxy-phenyl)-piperidin-1-yl]-quinazolin-5-yl}-methyl-propyl-amine]"
18,2000 to 10000 nM,"COc1ccccc1C1CCN(c2nc(C3(C(F)(F)F)CCCC3)nc3ccc(N(C)CCO)cc23)CC1 [Example 55, 2-{[4-[4-(2-methoxy-phenyl)-piperidin-1-yl]-2-(1-trifluoromethyl-cyclopentyl)-quinazolin-6-yl]-methyl-amino}-ethanol]"

row,EC50,SMILES
1,< 500 nM,COc1ccccc1C1CCN(c2nc(C3(F)CC3)nc3cc(F)c(N(C)CCO)cc23)CC1 [Example 171]
2,> 10000 nM,"CCCN(C)c1ccc2nc(C3CCC3)nc(N3CCC(c4ccccc4OC)CC3)c2c1 [Example 45, {2-cyclobutyl-4-[4-(2-methoxy-phenyl)-piperidin-1-yl]-quinazolin-6-yl}-methyl-propyl-amine]"
3,> 10000 nM,"COC1CCCC1N1CCN(c2nc(C3CC3)nc3ccc(N(C)CCO)cc23)CC1 (stereo not shown) [Example 184, 2-({2-Cyclopropyl-4-[4-(2-methoxy-cyclopentyl)-piperazin-1-yl]-quinazolin-6-yl}-methyl-amino)-ethanol]"
4,> 10000 nM,"CCCN(C)c1ccc2c(N3CCC(c4ccccc4OC)CC3)nc(C3CC3)nc2c1 [Example 135, 2-cyclopropyl-4-(4-(2-methoxyphenyl)piperidin-1-yl)-N-methyl-N-propylquinazolin-7-amine]"
5,500 to 2000 nM,"COc1nccnc1C1CCN(c2nc(C3(C)CC3)nc3c(F)cc(N(C)CCO)cc23)CC1 [Example 204, 2-{[8-Fluoro-4-[4-(3-methoxy-pyrazin-2-yl)-piperidin-1-yl]-2-(1-methyl-cyclopropyl)-quinazolin-6-yl]-methyl-amino}-ethanol]"
6,500 to 2000 nM,"Cc1cc2nc(C3CC3)nc(N3CCC(c4ccccc4N4CCC4)CC3)c2cc1N(C)CCO [Example 121, 2-({4-[4-(2-azetidin-1-yl-phenyl)-piperidin-1-yl]-2-cyclopropyl-7-methyl-quinazolin-6-yl}-methyl-amino)-ethanol]"
7,2000 to 10000 nM,"COc1ccccc1C1CCN(c2nc(C3(F)CCC3)nc3cnc(N4CC[C@H](O)C4)cc23)CC1 [Example 200, 1-{2-(1-Fluoro-cyclobutyl)-4-[4-(2-methoxy-phenyl)-piperidin-1-yl]-pyrido[3,4-d]pyrimidin-6-yl}-pyrrolidin-3-ol]"
8,> 10000 nM,"COc1ccccc1C1CCN(c2nc(C3(N(C)C)CC3)nc3ccc(N(C)C)cc23)CC1 [Example 19, {2-(1-dimethylamino-cyclopropyl)-4-[4-(2-methoxy-phenyl)-piperidin-1-yl]-quinazolin-6-yl}-dimethyl-amine]"
9,2000 to 10000 nM,"COc1ccccc1C1CCN(c2nc(C3(F)CC3)nc3ccc(N(C)CC(=O)O)cc23)CC1 [Example 180, 2-((2-(1-fluorocyclopropyl)-4-(4-(2-methoxyphenyl)piperidin-1-yl)quinazolin-6-yl)(methyl)amino)acetic acid]"
10,2000 to 10000 nM,"COc1ccccc1C1CCN(c2nc(C3(C)CC3)nc3ccc(N(C)CCN4CCCC4)cc23)CC1 [Example 24, [4-[4-(2-methoxy-phenyl)-piperidin-1-yl]-2-(1-methyl-cyclopropyl)-quinazolin-6-yl]-methyl-(2-pyrrolidin-1-yl-ethyl)-amine]"
11,2000 to 10000 nM,"COCCN(C)c1ccc2nc(C3CC3)nc(N3CCC(c4ccccc4N4CCC4)CC3)c2c1 [Example 7, {4-[4-(2-azetidin-1-yl-phenyl)-piperidin-1-yl]-2-cyclopropyl-quinazolin-6-yl}-(2-methoxy-ethyl)-methyl-amine]"
12,< 500 nM,"COc1ccccc1C1CCN(c2nc(C3(F)CCC3)nc3ccc(N(C)CCO)cc23)CC1 [Example 59, 2-({2-(1-fluoro-cyclobutyl)-4-[4-(2-methoxy-phenyl)-piperidin-1-yl]-quinazolin-6-yl}-methyl-amino)-ethanol]"
13,> 10000 nM,"CCCN(C)c1ccc2nc(C3CC3)nc(N3CCN(C4CCCC4OC)CC3)c2c1 (stereo not shown) [Example 185, 2-cyclopropyl-4-(4-(2-methoxycyclopentyl)piperazin-1-yl)-N-methyl-N-propylquinazolin-6-amine]"
14,> 10000 nM,"COc1ccccc1C1CCN(c2nc(C3CCCC3)nc3ccc(N(C)C)cc23)CC1 [Example 37, {2-cyclopentyl-4-[4-(2-methoxy-phenyl)-piperidin-1-yl]-quinazolin-6-yl}-dimethyl-amine]"
15,500 to 2000 nM,"COc1ccccc1C1CCN(c2nc(C3CC3)nc3ccc(N4CC[C@@H](O)C4)cc23)CC1 [Example 175, (R)-1-{2-cyclopropyl-4-[4-(2-methoxy-phenyl)-piperidin-1-yl]-quinazolin-6-yl}-pyrrolidin-3-ol]"
16,2000 to 10000 nM,"COCCN(C)c1ccc2nc(C3CC3)nc(N3CCC(c4ccccc4N(C)C)CC3)c2c1 [Example 11, {2-cyclopropyl-4-[4-(2-dimethylamino-phenyl)-piperidin-1-yl]-quinazolin-6-yl}-(2-methoxy-ethyl)-methyl-amine]"
17,> 10000 nM,"CCCN(C)c1cc2c(N3CCC(c4ccccc4N4CCC4)CC3)nc(C3CC3)nc2cc1F [Example 106, {4-[4-(2-azetidin-1-yl-phenyl)-piperidin-1-yl]-2-cyclopropyl-7-fluoro-quinazolin-6-yl}-methyl-propyl-amine]"

row,SMILES,EC50
1,"COc1ccccc1C1CCN(c2nc(OC3CCC3)nc3ccc(N(C)CCO)cc23)CC1 [Example 193, 2-((2-cyclobutoxy-4-(4-(2-methoxyphenyl)piperidin-1-yl)quinazolin-6-yl)(methyl)amino)ethanol]",500 to 2000 nM
2,"COc1nccnc1C1CCN(c2nc(C3(O)CCC3)nc3ccc(N(C)CCO)cc23)CC1 [Example 221, 1-(6-((2-hydroxyethyl)(methyl)amino)-4-(4-(3-methoxypyrazin-2-yl)piperidin-1-yl)quinazolin-2-yl)cyclobutanol]",> 10000 nM
